Results: the NIST ThermoML archive (doi:10.1021/je800012v)
Numbers after ± are expanded uncertainties.

Settings: Liquid

For CCCCCl [1-chlorobutane], which mass density (283.15 K, 100 kPa) is on record?
Its mass density is 897.21 ± 0.17 kg/m3.

What about the mass density (283.15 K, 2500 kPa) of the same molecule?
Its mass density is 899.51 ± 0.19 kg/m3.

What about the mass density (283.15 K, 5000 kPa) of the same molecule?
Its mass density is 901.82 ± 0.2 kg/m3.

And the mass density (283.15 K, 10000 kPa)?
Its mass density is 906.3 ± 0.24 kg/m3.

And the mass density (283.15 K, 15000 kPa)?
Its mass density is 910.57 ± 0.26 kg/m3.

And the mass density (283.15 K, 20000 kPa)?
Its mass density is 914.69 ± 0.29 kg/m3.

What about the mass density (283.15 K, 25000 kPa) of the same molecule?
The mass density was 918.63 ± 0.31 kg/m3.

What about the mass density (283.15 K, 30000 kPa) of the same molecule?
The mass density was 922.33 ± 0.34 kg/m3.

What about the mass density (283.15 K, 35000 kPa) of the same molecule?
The mass density was 926.05 ± 0.36 kg/m3.

And the mass density (293.15 K, 100 kPa)?
Its mass density is 886.18 ± 0.18 kg/m3.

What about the mass density (293.15 K, 2500 kPa) of the same molecule?
Its mass density is 888.63 ± 0.2 kg/m3.

And the mass density (293.15 K, 5000 kPa)?
The mass density was 891.13 ± 0.21 kg/m3.

What about the mass density (293.15 K, 10000 kPa) of the same molecule?
Its mass density is 895.89 ± 0.25 kg/m3.

What about the mass density (293.15 K, 20000 kPa) of the same molecule?
The mass density was 904.73 ± 0.31 kg/m3.

What about the mass density (293.15 K, 25000 kPa) of the same molecule?
Its mass density is 908.9 ± 0.34 kg/m3.

What about the mass density (293.15 K, 30000 kPa) of the same molecule?
Its mass density is 912.88 ± 0.36 kg/m3.

And the mass density (293.15 K, 35000 kPa)?
Its mass density is 916.77 ± 0.38 kg/m3.

What about the mass density (298.15 K, 100 kPa) of the same molecule?
The mass density was 880.63 ± 0.18 kg/m3.

And the mass density (298.15 K, 2500 kPa)?
Its mass density is 883.17 ± 0.2 kg/m3.

And the mass density (298.15 K, 5000 kPa)?
The mass density was 885.72 ± 0.22 kg/m3.

And the mass density (298.15 K, 10000 kPa)?
Its mass density is 890.65 ± 0.25 kg/m3.

What about the mass density (298.15 K, 15000 kPa) of the same molecule?
The mass density was 895.36 ± 0.29 kg/m3.

What about the mass density (298.15 K, 20000 kPa) of the same molecule?
The mass density was 899.79 ± 0.32 kg/m3.

What about the mass density (298.15 K, 25000 kPa) of the same molecule?
Its mass density is 904.09 ± 0.35 kg/m3.

And the mass density (298.15 K, 30000 kPa)?
The mass density was 908.22 ± 0.37 kg/m3.

What about the mass density (298.15 K, 35000 kPa) of the same molecule?
The mass density was 912.17 ± 0.4 kg/m3.

What about the mass density (303.15 K, 100 kPa) of the same molecule?
The mass density was 874.92 ± 0.18 kg/m3.

What about the mass density (303.15 K, 2500 kPa) of the same molecule?
Its mass density is 877.59 ± 0.21 kg/m3.

What about the mass density (303.15 K, 5000 kPa) of the same molecule?
Its mass density is 880.23 ± 0.22 kg/m3.

What about the mass density (303.15 K, 10000 kPa) of the same molecule?
The mass density was 885.43 ± 0.26 kg/m3.

And the mass density (303.15 K, 15000 kPa)?
Its mass density is 890.24 ± 0.29 kg/m3.

And the mass density (303.15 K, 20000 kPa)?
Its mass density is 894.84 ± 0.33 kg/m3.

What about the mass density (303.15 K, 25000 kPa) of the same molecule?
Its mass density is 899.24 ± 0.36 kg/m3.

And the mass density (303.15 K, 30000 kPa)?
Its mass density is 903.46 ± 0.39 kg/m3.

What about the mass density (303.15 K, 35000 kPa) of the same molecule?
The mass density was 907.47 ± 0.41 kg/m3.

And the mass density (313.15 K, 100 kPa)?
Its mass density is 863.82 ± 0.19 kg/m3.

What about the mass density (313.15 K, 2500 kPa) of the same molecule?
Its mass density is 866.65 ± 0.21 kg/m3.

And the mass density (313.15 K, 5000 kPa)?
Its mass density is 869.49 ± 0.23 kg/m3.

And the mass density (313.15 K, 10000 kPa)?
Its mass density is 874.93 ± 0.27 kg/m3.

And the mass density (313.15 K, 15000 kPa)?
Its mass density is 880.07 ± 0.31 kg/m3.

What about the mass density (313.15 K, 20000 kPa) of the same molecule?
The mass density was 884.94 ± 0.35 kg/m3.

What about the mass density (313.15 K, 25000 kPa) of the same molecule?
Its mass density is 889.61 ± 0.38 kg/m3.

And the mass density (313.15 K, 30000 kPa)?
The mass density was 894.04 ± 0.41 kg/m3.

What about the mass density (313.15 K, 35000 kPa) of the same molecule?
Its mass density is 898.33 ± 0.44 kg/m3.

What about the mass density (323.15 K, 100 kPa) of the same molecule?
The mass density was 852.43 ± 0.2 kg/m3.

And the mass density (323.15 K, 2500 kPa)?
Its mass density is 855.47 ± 0.22 kg/m3.

What about the mass density (323.15 K, 5000 kPa) of the same molecule?
Its mass density is 858.54 ± 0.24 kg/m3.

And the mass density (323.15 K, 10000 kPa)?
The mass density was 864.35 ± 0.29 kg/m3.

What about the mass density (323.15 K, 15000 kPa) of the same molecule?
The mass density was 869.85 ± 0.33 kg/m3.

What about the mass density (323.15 K, 20000 kPa) of the same molecule?
The mass density was 875.03 ± 0.37 kg/m3.

And the mass density (323.15 K, 25000 kPa)?
The mass density was 879.94 ± 0.4 kg/m3.

And the mass density (323.15 K, 30000 kPa)?
The mass density was 884.62 ± 0.43 kg/m3.

And the mass density (323.15 K, 35000 kPa)?
The mass density was 889.1 ± 0.46 kg/m3.

And the mass density (333.15 K, 100 kPa)?
The mass density was 840.79 ± 0.21 kg/m3.

What about the mass density (333.15 K, 2500 kPa) of the same molecule?
The mass density was 844.06 ± 0.23 kg/m3.

What about the mass density (333.15 K, 5000 kPa) of the same molecule?
Its mass density is 847.37 ± 0.25 kg/m3.

What about the mass density (333.15 K, 10000 kPa) of the same molecule?
Its mass density is 853.61 ± 0.3 kg/m3.

What about the mass density (333.15 K, 15000 kPa) of the same molecule?
Its mass density is 859.47 ± 0.34 kg/m3.

What about the mass density (333.15 K, 20000 kPa) of the same molecule?
Its mass density is 864.97 ± 0.38 kg/m3.

And the mass density (333.15 K, 25000 kPa)?
The mass density was 870.17 ± 0.42 kg/m3.

What about the mass density (333.15 K, 30000 kPa) of the same molecule?
Its mass density is 875.12 ± 0.46 kg/m3.

What about the mass density (333.15 K, 35000 kPa) of the same molecule?
Its mass density is 879.82 ± 0.49 kg/m3.

Which results are given for CCCCCC [hexane]?
mass density (283.15 K, 100 kPa): 668.07 ± 0.32 kg/m3; mass density (283.15 K, 2500 kPa): 670.36 ± 0.38 kg/m3; mass density (283.15 K, 5000 kPa): 672.69 ± 0.44 kg/m3; mass density (283.15 K, 10000 kPa): 677.06 ± 0.56 kg/m3; mass density (283.15 K, 15000 kPa): 681.19 ± 0.68 kg/m3; mass density (283.15 K, 20000 kPa): 685.08 ± 0.8 kg/m3; mass density (283.15 K, 25000 kPa): 688.82 ± 0.91 kg/m3; mass density (283.15 K, 30000 kPa): 692.35 ± 1 kg/m3; mass density (283.15 K, 35000 kPa): 695.65 ± 1.1 kg/m3; mass density (293.15 K, 100 kPa): 659.18 ± 0.33 kg/m3; mass density (293.15 K, 2500 kPa): 661.67 ± 0.39 kg/m3; mass density (293.15 K, 5000 kPa): 664.17 ± 0.45 kg/m3; mass density (293.15 K, 10000 kPa): 668.87 ± 0.58 kg/m3; mass density (293.15 K, 15000 kPa): 673.27 ± 0.7 kg/m3; mass density (293.15 K, 20000 kPa): 677.4 ± 0.81 kg/m3; mass density (293.15 K, 25000 kPa): 681.33 ± 0.93 kg/m3; mass density (293.15 K, 30000 kPa): 685.07 ± 1 kg/m3; mass density (293.15 K, 35000 kPa): 688.63 ± 1.1 kg/m3; mass density (298.15 K, 100 kPa): 654.61 ± 0.33 kg/m3; mass density (298.15 K, 2500 kPa): 657.21 ± 0.4 kg/m3; mass density (298.15 K, 5000 kPa): 659.81 ± 0.46 kg/m3; mass density (298.15 K, 10000 kPa): 664.66 ± 0.58 kg/m3; mass density (298.15 K, 15000 kPa): 669.24 ± 0.7 kg/m3; mass density (298.15 K, 20000 kPa): 673.51 ± 0.82 kg/m3; mass density (298.15 K, 25000 kPa): 677.56 ± 0.94 kg/m3; mass density (298.15 K, 30000 kPa): 681.4 ± 1.1 kg/m3; mass density (298.15 K, 35000 kPa): 685.02 ± 1.2 kg/m3; mass density (303.15 K, 100 kPa): 649.97 ± 0.34 kg/m3; mass density (303.15 K, 2500 kPa): 652.7 ± 0.4 kg/m3; mass density (303.15 K, 5000 kPa): 655.36 ± 0.46 kg/m3; mass density (303.15 K, 10000 kPa): 660.53 ± 0.59 kg/m3; mass density (303.15 K, 15000 kPa): 665.23 ± 0.71 kg/m3; mass density (303.15 K, 20000 kPa): 669.63 ± 0.83 kg/m3; mass density (303.15 K, 25000 kPa): 673.81 ± 0.95 kg/m3; mass density (303.15 K, 30000 kPa): 677.77 ± 1.1 kg/m3; mass density (303.15 K, 35000 kPa): 681.45 ± 1.2 kg/m3; mass density (313.15 K, 100 kPa): 640.82 ± 0.35 kg/m3; mass density (313.15 K, 2500 kPa): 643.76 ± 0.41 kg/m3; mass density (313.15 K, 5000 kPa): 646.69 ± 0.47 kg/m3; mass density (313.15 K, 10000 kPa): 652.13 ± 0.6 kg/m3; mass density (313.15 K, 15000 kPa): 657.16 ± 0.73 kg/m3; mass density (313.15 K, 20000 kPa): 661.86 ± 0.85 kg/m3; mass density (313.15 K, 25000 kPa): 666.28 ± 0.97 kg/m3; mass density (313.15 K, 30000 kPa): 670.44 ± 1.1 kg/m3; mass density (313.15 K, 35000 kPa): 674.41 ± 1.2 kg/m3; mass density (323.15 K, 100 kPa): 631.41 ± 0.35 kg/m3; mass density (323.15 K, 2500 kPa): 634.61 ± 0.42 kg/m3; mass density (323.15 K, 5000 kPa): 637.8 ± 0.48 kg/m3; mass density (323.15 K, 10000 kPa): 643.69 ± 0.62 kg/m3; mass density (323.15 K, 15000 kPa): 649.12 ± 0.74 kg/m3; mass density (323.15 K, 20000 kPa): 654.14 ± 0.87 kg/m3; mass density (323.15 K, 25000 kPa): 658.84 ± 0.99 kg/m3; mass density (323.15 K, 30000 kPa): 663.23 ± 1.1 kg/m3; mass density (323.15 K, 35000 kPa): 667.4 ± 1.2 kg/m3; mass density (333.15 K, 100 kPa): 621.8 ± 0.36 kg/m3; mass density (333.15 K, 2500 kPa): 625.32 ± 0.43 kg/m3; mass density (333.15 K, 5000 kPa): 628.77 ± 0.5 kg/m3; mass density (333.15 K, 10000 kPa): 635.13 ± 0.63 kg/m3; mass density (333.15 K, 15000 kPa): 640.94 ± 0.76 kg/m3; mass density (333.15 K, 20000 kPa): 646.27 ± 0.89 kg/m3; mass density (333.15 K, 25000 kPa): 651.23 ± 1 kg/m3; mass density (333.15 K, 30000 kPa): 655.89 ± 1.1 kg/m3; mass density (333.15 K, 35000 kPa): 660.3 ± 1.2 kg/m3
